Laboratory results: patent US10344019B2 (priority 2010, dated 2019)
Like-named read-outs stand apart in the source and are kept apart here.

How the values were obtained:
Assay type in all cases: cell-based
[1] = test system: HCV 1a RLuc cells (dicistronic genotype 1a H77 replicon, RLuc reporter); assay: microbe, parasite or virus in culture; conditions: Hepatitis C virus, read-out: 1a
How it was run: (§1)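 Replicon cells stably carrying the listed RLuc-encoding dicistronic replicons were seeded and treated with DMSO serial dilutions of compound (10 mM stocks) diluted into culture medium. After 72 h, cells were lysed and Renilla luciferase activity measured. EC50 was derived by non-linear regression.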

[2] = test system: HCV 1b RLuc cells (dicistronic genotype 1b Con1 replicon, RLuc reporter); assay: microbe, parasite or virus in culture; conditions: Hepatitis C virus, read-out: 1b (nM)
How it was run: as §1

[3] = test system: HCV 2a JFH-1 Rluc cells (dicistronic genotype 2a JFH-1 replicon, RLuc reporter); assay: microbe, parasite or virus in culture; conditions: Hepatitis C virus, read-out: 2a JFH
How it was run: as §1

[4] = test system: HCV 2b Rluc cells (NS5A chimeric genotype 2a JFH-1 replicon with genotype 2b MD2b-1 NS5A gene, M31 present); assay: microbe, parasite or virus in culture; conditions: read-out: 2b
How it was run: as §1

[5] = test system: HCV 3a RLuc cells (NS5A chimeric genotype 1b Con1 replicon with consensus genotype 3a NS5A gene); assay: microbe, parasite or virus in culture; conditions: Hepatitis C virus
How it was run: as §1

[6] = test system: HCV 4a Rluc cells (NS5A chimeric genotype 1b Con1 replicon with genotype 4a NS5A gene); assay: microbe, parasite or virus in culture; conditions: read-out: 4a
How it was run: as §1

[7] = test system: Q30R in genotype 1a NS5A, 1a Rluc replicon transfected into Huh-7 cured-51 cells; assay: HCV replicon assay, resistance mutant 1a Q30R
How it was run: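 Q30R introduced into genotype 1a H77 RLuc replicon by site-directed mutagenesis; replicon RNA transfected into Huh-7 cured-51 cells.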

[8] = test system: HCV 2a Rluc cells (NS5A chimeric genotype 2a JFH-1 replicon with genotype 2a J6 strain NS5A gene, M31 present); assay: HCV replicon reporter assay, genotype 2a J6 (M31 present); conditions: read-out: 2a J6
How it was run: as §1

[9] = genotype 2a JFH-1 RLuc replicon
[10] = read-out: 3a, genotype 3a NS5A chimeric replicon
[11] = Hepatitis C virus, Huh-7, read-out: 1a Q30R
[12] = read-out: 3a, genotype 3a replicon

SMILES | EC50 ([1]; genotype 1a H77 RLuc replicon) [pM] | EC50 [2] [nM] | EC50 [3, 9] [pM] | EC50 ([4]; Hepatitis C virus) [pM] | EC50 [5, 10] [pM] | EC50 ([6]; Hepatitis C virus) [pM] | EC50 [7, 11] [pM] | EC50 ([8]; Hepatitis C virus) [pM] | EC50 ([1]; genotype 1a replicon) [pM] | EC50 ([3]; genotype 2a JFH-1 replicon) [pM] | EC50 [5, 12] [pM] | EC50 ([4]; genotype 2b NS5A chimeric replicon, M31 present) [pM] | EC50 ([6]; genotype 4a NS5A chimeric replicon) [pM] | EC50 ([7]; read-out: 1a Q30R, genotype 1a NS5A Q30R resistance mutant) [pM] | EC50 ([8]; genotype 2a J6 NS5A chimeric replicon, M31 present) [pM]
COC[C@H]1C[C@@H](c2nc3ccc4cc5c(cc4c3[nH]2)OCc2cc(-c3cnc([C@@H]4C[C@H](C)CN4C(=O)[C@@H](NC(=O)OC)C(C)C)[nH]3)ccc2-5)N(C(=O)[C@H](NC(=O)OC)c2ccccc2)C1 [Example 555] | 1 to 999 | 0.021 | 1 to 999 | 1 to 999 | 1 to 990 | 1 to 990 | 1 to 999 | 1 to 999 |  |  |  |  |  |  | 
COC(=O)N[C@H](C(=O)N1CCC[C@H]1c1ncc(-c2ccc3c(c2)COc2cc4c(cc2-3)CCc2nc([C@@H]3CCCN3C(=O)[C@H](NC(=O)OC)c3ccccc3)[nH]c2-4)[nH]1)C(C)C [Example 434] |  |  |  | 1 to 999 |  | 1 to 990 | 1 to 999 | 1 to 999 | 1 to 999 | 1 to 999 | 1 to 990 |  |  |  | 
COC(=O)N[C@H](C(=O)N1CCC[C@H]1c1ncc(-c2ccc3c(c2)COc2cc4c(ccc5nc([C@@H]6C[C@H](C)CN6C(=O)[C@H](NC(=O)OC)c6ccccc6)[nH]c54)cc2-3)[nH]1)C(C)C [Example 543] | 1 to 999 |  | 1 to 999 | 1 to 999 | 1 to 990 | 1 to 990 | 1 to 999 | 1 to 999 |  |  |  |  |  |  | 
COC[C@H]1C[C@@H](c2nc3ccc4cc5c(cc4c3[nH]2)OCc2cc(-c3cnc([C@@H]4CCCN4C(=O)[C@@H](NC(=O)OC)C(C)C)[nH]3)ccc2-5)N(C(=O)[C@H](NC(=O)OC)c2ccccc2)C1 [Example 538] | 1 to 999 |  | 1 to 999 | 1 to 999 | 1 to 990 | 1 to 990 | 1 to 999 | 1 to 999 |  |  |  |  |  |  | 
COC(=O)N[C@H](C(=O)N1CCC[C@H]1c1nc2c([nH]1)-c1cc3c(cc1CC2)-c1ccc(-c2cnc([C@@H]4CCCN4C(=O)[C@H](NC(=O)OC)c4ccccc4)[nH]2)cc1CO3)C(C)C [Example 435] |  |  |  | 1 to 999 |  | 1 to 990 | 1 to 999 | 1 to 999 | 1 to 999 | 1 to 999 | 1 to 990 |  |  |  | 
COC(=O)N[C@H](C(=O)N1[C@H](c2nc3ccc4cc5c(cc4c3[nH]2)OCc2cc(-c3cnc(C4CCCN4C(=O)[C@H](NC(=O)OC)c4ccccc4)[nH]3)ccc2-5)C[C@@H]2CCC[C@@H]21)C(C)C (some centres unmarked) [Example 574] | 1 to 999 |  | 1 to 999 | 1 to 999 | 1 to 990 | 1 to 990 | 1 to 999 | 1 to 999 |  |  |  |  |  |  | 
COC(=O)N[C@H](C(=O)N1[C@@H](C)CC[C@H]1c1ncc(-c2ccc3c(c2)COc2cc4c(ccc5nc([C@@H]6CC[C@H](C)N6C(=O)[C@@H](NC(=O)OC)[C@@H](C)OC)[nH]c54)cc2-3)[nH]1)[C@@H](C)OC [Example 592] | 1 to 999 |  | 1 to 999 | 1 to 999 | 1 to 990 | 1 to 990 | 1 to 999 | 1 to 999 |  |  |  |  |  |  | 
COC(=O)N[C@H](C(=O)N1CCC[C@H]1c1ncc(-c2ccc3c(c2)COc2cc4c(ccc5nc([C@@H]6CCCN6C(=O)[C@H](NC(=O)OC)c6ccccc6)[nH]c54)cc2-3)[nH]1)[C@@H](C)OC [Example 588] | 1 to 999 |  | 1 to 999 | 1 to 999 | 1 to 990 | 1 to 990 | 1 to 999 | 1 to 999 |  |  |  |  |  |  | 
COC[C@H]1C[C@@H](c2nc3ccc4cc(-c5ccc6c(ccc7nc([C@@H]8CCCN8C(=O)[C@@H](NC(=O)OC)C(C)C)[nH]c76)c5)ccc4c3[nH]2)N(C(=O)[C@H](NC(=O)OC)c2ccccc2)C1 [Example 540] | 1 to 999 |  | 1 to 999 |  | 1 to 990 |  |  |  |  |  |  | 1 to 999 | 1 to 990 | 1 to 999 | 1 to 999
COC[C@H]1C[C@@H](c2nc3ccc4cc5c(cc4c3[nH]2)OCc2cc(-c3cnc([C@@H]4C[C@H](C)CN4C(=O)[C@H](NC(=O)OC)c4ccccc4)[nH]3)ccc2-5)N(C(=O)[C@@H](NC(=O)OC)C(C)C)C1 [Example 572] | 1 to 999 |  | 1 to 999 | 1 to 999 | 1 to 990 | 1 to 990 | 1 to 999 | 1 to 999 |  |  |  |  |  |  | 
